Consider 1 compound from US20060235068A1, “OPHTHALMOLOGICAL SURGERY COLORANT AND DELIVERY SYSTEM” (priority 2000, published 2006).

The test system of data set [1] is ILM, the epiretinal membrane. Put plainly: ILM / epiretinal membrane peeling with indocyanine green staining in human patients. It counts as in vivo. Particulars: human patients having macular holes, epiretinal membranes, or both. The text has this:
The procedures of Example are followed using human patients having macular holes, epiretinal membrances, or both.

For data set [2] the following is noted: upon mixing; as marketed; cited from earlier work.
The nature of data set [3]: Contrast characteristics of indocyanine green colorant after exposure. It counts as physicochemical. The following applies: exposed to air, room temperature and lighted atmospheric conditions; at least 8 hours up to one month after exposure, or longer.

Description for retinal ILM: Human cadaveric eyes are examined in the laboratory to determine if the ICG solution stains the retinal ILM. The entire anterior segment of the eye is excised to gain access to the vitreous cavity. […] The dye is left in place on the macula for 5 minutes. […] A bent 22 g needle is used to create the initial ILM tear. Intraocular foreign body forceps are then used to grasp the elevated ILM edge. The ILM is peeled in a continuous, circular manner similar to a capsulorhexis in cataract surgery. In each case, the ILM peel removes 3 to 4 disc diameters of ILM centered approximately on the fovea. Peeled ILM and cadaver eyes are fixed in 10% buffered formalin for histopathologic preparation. Specimens are evaluated by light microscopy.
The peeled ILM and sectioned globes are submitted for histopathologic evaluation and electron microscopy. Periodic acid-Schiff (PAS) stain is used to identify the ILM.

As for `CC1(C)C(/C=C/C=C/C=C/C=C2\N(CCCCS(=O)(=O)O)c3ccc4ccccc4c3C2(C)C)=[N+](CCCCS(=O)(=O)[O-])c2ccc3ccccc3c21` [indocyanine green], the “peeling of the ILM, the epiretinal membrane or both” value in data set [1] is on record as “Successful peeling”. Moreover, the fluorescence stability entry in data set [2] is “about 10 hours”. Further, in data set [3], the “contrast characteristics after exposure” value was “satisfactory contrast characteristics”. Moreover, the “staining of the underlying retina” value in the data set with retinal ILM (after the ICG is removed, needle penetrated through the ILM) is “unstained underlying retina”. Further, in the data set with retinal ILM (compared with globes in which the posterior cortical vitreous was removed prior to ICG injection), the “staining of the underlying ILM when posterior hyaloid remains attached” value is listed as “less staining of the underlying ILM”. Besides, the “effect of staining on ILM peeling” value with retinal ILM (contrast between stained ILM and unstained retina) is “facilitates the continuation of ILM peeling”.
